This is an account of results in patent US20240075036A1, “THERAPEUTIC COMBINATIONS INCLUDING INHIBITORS OF THE P2X4 RECEPTOR FOR TREATING AND PREVENTING PROLIFERATIVE DISORDERS” (CHEMOTHERAPEUTISCHES FORSCHUNGSINSTITUT GEORG-SPEYER-HAUS, priority 2021, published 2024).

Series [1] concerns ectopic patient-derived colon tumor. The following applies: irinotecan and AZD2014 combination; cited from earlier work.
The subject of the next series is SW480 cells. The following applies: irinotecan and AZD2014 combination; orthotopic implantation; cited from earlier work.
The subject of series [2] is advanced colorectal cancer. The following applies: treatment of advanced colorectal cancer; cited from earlier work.
Series [3] relates to refractory metastatic colorectal cancer / refractory solid tumors. The following applies: cited from earlier work.
The subject of series [4] is S6 ribosomal protein phosphorylation (mTOR signaling). Description: Immunoblot analysis of survival pathways / S6 phosphorylation in AOM/DSS tumor organoids. It counts as cell-based, mice. The following applies: ATP (100 μM) in presence of inhibitor; AOM/DSS tumor organoids. (In western blotting, separated proteins are transferred to a membrane and probed.)
Description: Data are mean±SD, n=7. *p<0.05 by two-tailed Student's t-test. c, Immunoblot analysis of Lgr5EGFP-DTR(−) tumor organoids treated with ATP (100 μM), 2MeS ADP (100 μM) and adenosine (100 μM) for 30 min. […] Data are mean±SD, n=4 replicates. […] Data are mean±SD, n=3 replicates. One representative of three experiment performed is shown. n.s. p>0,05, *p<0.05***, p<0.001, ****p<0.0001 by 1-way ANOVA with Bonferroni's multiple comparison test. 1, Immunoblot analysis of doxycycline inducible P2x4 knockdown APTAK colon tumor organoids treated with 5-FU (20 μM). Organoids were cultured in medium−/+doxycycline prior to the experiment. […] Organoids were cultured in medium−/+doxycycline prior to the experiment. […] Data are mean±SD, n=3.
In vitro Lgr5+ cells ablation experiments, organoids were treated with 20 ng/ml DT (Millipore, #322326) in the culture medium. For human LGR5+ cells ablation, we treated LGR5-iCT organoids with 500 nM BB homodimerizer. Other treatments were performed as described in each figure legends.
The subject of the next series is APTAK tumor organoids. Description: APTAK tumor organoids: S6 phosphorylation and organoid survival. It is filed as cell-based, mice. The following applies: P2x4 inhibitor in combination with 5-FU compared to each treatment alone.
Series [5] deals with AOM/DSSATKN tumor organoids. The following applies: P2x4 inhibitor in combination with 5-FU (20 μM) compared to each treatment alone; AOM/DSS tumor organoids.
Excerpt: Percentage of reseeding capacity compared to vehicle treated organoids is indicated. Data are mean±SD, n=4 replicates. […] Percentage of reseeding capacity compared to vehicle treated organoids is indicated.
For series [6], the system named is patient-derived tumor organoids (PDTO) from pancreatic ductal adenocarcinoma. The following applies: P2X4 inhibitor 5-BDBD combined with 5-FU.
The target in another series is T1, rat P2X4 receptor (Rattus norvegicus, UniProt P51577).
T1 sequence (P51577 1-388): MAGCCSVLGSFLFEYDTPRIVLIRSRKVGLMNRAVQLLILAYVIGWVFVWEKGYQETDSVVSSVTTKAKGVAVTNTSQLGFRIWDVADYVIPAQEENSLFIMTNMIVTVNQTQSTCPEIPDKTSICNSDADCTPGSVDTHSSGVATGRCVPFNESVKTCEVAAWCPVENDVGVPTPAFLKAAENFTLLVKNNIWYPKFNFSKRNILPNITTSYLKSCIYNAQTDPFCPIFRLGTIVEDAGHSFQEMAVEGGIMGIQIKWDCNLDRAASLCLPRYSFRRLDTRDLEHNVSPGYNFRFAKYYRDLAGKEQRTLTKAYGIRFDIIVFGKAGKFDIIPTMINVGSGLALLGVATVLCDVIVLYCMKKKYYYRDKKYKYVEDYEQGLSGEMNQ
The following applies: cited from earlier work.

For a further series, the system named is PC3 and C4-2B4 cells. The following applies: selective P2XR4 antagonists; cited from earlier work.
Setting [7] is: 24 patients with refractory metastatic colorectal cancer, everolimus combination cohorts.

Description for APTAK tumor organoids: Organoids were cultured in medium−/+doxycycline prior to the experiment. […] Organoids were cultured in medium−/+doxycycline prior to the experiment.
Colon tumor organoids were cultured as previously described (27). AOM/DSS induced colon tumors were harvested by opening the colon longitudinally and dissociated enzymatically for 30-40 min in digestion media containing 1 mg/ml collagenase I (Sigma-Aldrich), 0.5 mg/ml Dispase (Roche), 50 μg/ml DNase (Sigma-Aldrich) in RPMI medium containing 2% FCS. Supernatant was washed and filtered through a 70 μM cell strainer. Cells were then embedded in Matrigel (Corning, #356231) and cultured in Advanced Dulbecco's modified Eagle's medium/F12 (Invitrogen, #12634-028) supplemented with Glutamax (Invitrogen, #35050038), Hepes (Invitrogen, #15630056), Pen/Strep (Invitrogen, #15140122), N2 supplement (Invitrogen, #17502048), B27supplement (Invitrogen, #17504044) and n-Acetylcysteine (Sigma-Aldrich, #A91165). EGF (Invitrogen, #PMG8045), RspoI and noggin were added as niche factor.

Regarding `CNC(=O)c1cccc(-c2ccc3c(N4CCOC[C@@H]4C)nc(N4CCOC[C@@H]4C)nc3n2)c1` [AZD2014], the tumor growth result in series [1] is given as “drastically reduced ectopic patient-derived colon tumor growth”. Also, in the series with SW480 cells, the “liver and lung metastases” value was “totally inhibited liver and lung metastases”.
Regarding `CO[C@H]1C[C@@H]2CC[C@@H](C)[C@@](O)(O2)C(=O)C(=O)N2CCCC[C@H]2C(=O)O[C@H]([C@H](C)C[C@@H]2CC[C@@H](OCCO)[C@H](OC)C2)CC(=O)[C@H](C)/C=C(\C)[C@@H](O)[C@@H](OC)C(=O)[C@H](C)C[C@H](C)/C=C/C=C/C=C/1C` [everolimus], the clinical activity entry in [2] is “limited clinical activity”. Besides, in [3] (setting [7]), the “median time on treatment” value was 2.7 months and the “patients remaining on treatment with stable disease for at least 3 months” value is reported as 45%. Also, the safety and tolerability entry in [3] (everolimus in addition to 5-FU/LV and mFOLFOX6) is “appears safe and tolerable”.
Turning to `O=C1CN=C(c2cccc(Br)c2)c2oc3ccccc3c2N1` [5-BDBD, 5-(3-bromophenyl)-1,3-dihydro-2H-benzofuro[3,2-e]-1,4-diazepin-2-one], in series [4], the “ATP induced phosphorylation of S6” value is reported as “reduced phosphorylation of S6 by ATP”. Moreover, the organoid survival entry (with APTAK tumor organoids; in series [5]) was “decreased organoid survival” throughout. Further, in [6], the tumor organoid survival entry is “sensitizes tumor organoids to 5-FU administration and leads to reduced tumor organoid survival”. Besides, at rat P2X4 receptor, the “antagonist action on ATP-induced currents” value is “specific P2X4R antagonist”. Also, the “growth, mobility and apoptosis of PCa cells” value in the series on PC3 and C4-2B4 cells was “impaired the growth and mobility of PCa cells but not apoptosis”.
